38 compounds from patent publication US20090030024A1, “THIAZOLES AS FUNGICIDES” (priority 2005, published 2009) can be followed below.

The data set in a line: logP determination by retention times (calibration with alkan-2-ones). Conditions: for logP: HPLC, reversed-phase C 18, EEC Directive 79/831 Annex V.A8, method *: 40° C., 0.1% aqueous formic acid and acetonitrile, linear gradient 10% to 95% acetonitrile.

Marks after values point to notes of the source that are not given here.

One may read the chromatographic logP as lipophilicity estimated from chromatographic retention. Lower therefore signals lower lipophilicity. For `Cc1ncsc1-c1ccnc(Nc2cccc(C(F)(F)F)c2)n1` [Example 267, 4-(4-methyl-1,3-thiazol-5-yl)-N-[3-(trifluoromethyl)phenyl]pyrimidine-2-amine], the chromatographic logP came to 3.14. Take `Cc1nc2c(s1)-c1nc(Nc3ccc(O)cc3)ncc1CC2` [Example 281, 4-[(2-methyl-4,5-dihydro[1,3]thiazole[4,5-h]quinazolin-8-yl)amino]phenol]: the logP is reported as 1.41*.

`COCC(C)Nc1nc(C)c(-c2ccnc(Nc3ccc(O)cc3)n2)s1` (centres unmarked) [Example 284, 4-[(4-{2-[(2-methoxy-1-methylethyl)amino]-4-methyl-1,3-thiazol-5-yl}pyrimidin-2-yl)amino]phenol] registered a chromatographic logP of 1.4. As to `COc1cc(Nc2nccc(-c3sc(N(C)C)nc3C(F)(F)F)n2)cc(OC)c1OC` [Example 291, 4-[2-(dimethylamine)-4-(trifluoromethyl)-1,3-thiazol-5-yl]-N-(3,4,5-trimethoxyphenyl)pyrimidine-2-amine], the logP is given as 3.43*. On the same count and under the same terms, the same measure for `CN(C)c1nc(C(F)(F)F)c(-c2ccnc(Nc3ccccc3)n2)s1` [Example 292, 4-[2-(dimethylamine)-4-(trifluoromethyl)-1,3-thiazol-5-yl]-N-phenylpyrimidine-2-amine]: 3.88*.

Take `COc1cccc(Nc2nccc(-c3sc(N(C)C)nc3C)n2)c1` [Example 293, 4-[2-(dimethylamine)-4-methyl-1,3-thiazol-5-yl]-N-(3-methoxyphenyl)pyrimidine-2-amine]: the logP is reported as 1.98*. As for `Cc1cc(Nc2nccc(-c3sc(N(C)C)nc3C)n2)ccc1F` [Example 294, 4-[2-(dimethylamine)-4-methyl-1,3-thiazol-5-yl]-N-(4-fluoro-3-methylphenyl)pyrimidine-2-amine], the logP is on record as 2.22*.

As for `COCc1nc(C)c(-c2ccnc(Nc3cc(OC)c(OC)c(OC)c3)n2)s1` [Example 295, 4-[2-(methoxymethyl)-4-methyl-1,3-thiazol-5-yl]-N-(3,4,5-trimethoxyphenyl)pyrimidine-2-amine], the chromatographic logP amounted to 2.36. Still for that read-out and setting: then `COCc1nc(C)c(-c2ccnc(Nc3cccc(OC)c3)n2)s1` [Example 296, 4-[2-(methoxymethyl)-4-methyl-1,3-thiazol-5-yl]-N-(3-methoxyphenyl)pyrimidine-2-amine], with 2.67; and `COCc1nc(C)c(-c2ccnc(Nc3ccc(OC)nc3)n2)s1` [Example 298, 4-[2-(methoxymethyl)-4-methyl-1,3-thiazol-5-yl]-N-(6-methoxypyridin-3-yl)pyrimidine-2-amine], with 2.13; and `COCc1nc(C)c(-c2ccnc(Nc3cccc(C(F)(F)F)c3)n2)s1` [Example 299, 4-[2-(methoxymethyl)-4-methyl-1,3-thiazol-5-yl]-N-[3-(trifluoromethyl)phenyl]pyrimidine-2-amine], with 3.41. Still for that read-out and setting: the same measure for `COCc1nc(C)c(-c2ccnc(Nc3ccc(C(F)(F)F)cc3)n2)s1` [Example 300, 4-[2-(methoxymethyl)-4-methyl-1,3-thiazol-5-yl]-N-[4-(trifluoromethyl)phenyl]pyrimidine-2-amine]: 3.59. In turn, `COCc1nc(C)c(-c2ccnc(Nc3ccccc3)n2)s1` [Example 301, 4-[2-(methoxymethyl)-4-methyl-1,3-thiazol-5-yl]-N-phenylpyrimidine-2-amine] yielded a chromatographic logP of 3.01. On to `COc1cc(Nc2nccc(-c3sc(C)nc3C(F)(F)F)n2)cc(OC)c1OC` [Example 310, 4-[2-methyl-4-(trifluoromethyl)-1,3-thiazol-5-yl]-N-(3,4,5-trimethoxyphenyl)pyrimidine-2-amine], for which the chromatographic logP stood at 3.02.

Take `Cc1nc(C(F)(F)F)c(-c2ccnc(Nc3cccc([N+](=O)[O-])c3)n2)s1` [Example 311, 4-[2-methyl-4-(trifluoromethyl)-1,3-thiazol-5-yl]-N-(3-nitrophenyl)pyrimidine-2-amine]: the chromatographic logP is 3.5. The compound `Cc1nc(C(F)(F)F)c(-c2ccnc(Nc3ccccc3)n2)s1` [Example 312, 4-[2-methyl-4-(trifluoromethyl)-1,3-thiazol-5-yl]-N-phenylpyrimidine-2-amine] displayed a chromatographic logP of 3.45. For `CNc1nc(C)c(-c2ccnc(Nc3cc(OC)c(OC)c(OC)c3)n2)s1` [Example 313, 4-[4-methyl-2-(methylamine)-1,3-thiazol-5-yl]-N-(3,4,5-trimethoxyphenyl)pyrimidine-2-amine], the logP is reported as 1.53*. `CNc1nc(C)c(-c2ccnc(Nc3ccccc3)n2)s1` [Example 315, 4-[4-methyl-2-(methylamine)-1,3-thiazol-5-yl]-N-phenylpyrimidine-2-amine]: the logP was 1.61*.

Take `COc1cc(Nc2nccc(-c3sc(SC)nc3C)n2)cc(OC)c1OC` [Example 316, 4-[4-methyl-2-(methylthio)-1,3-thiazol-5-yl]-N-(3,4,5-trimethoxyphenyl)pyrimidine-2-amine]: the chromatographic logP is 2.76. The same measure, in the same setting: the same measure for `CSc1nc(C)c(-c2ccnc(Nc3ccc(C(F)(F)F)cc3)n2)s1` [Example 317, 4-[4-methyl-2-(methylthio)-1,3-thiazol-5-yl]-N-[4-(trifluoromethyl)phenyl]pyrimidine-2-amine]: 4.37. The compound `CSc1nc(C)c(-c2ccnc(Nc3ccccc3)n2)s1` [Example 318, 4-[4-methyl-2-(methylthio)-1,3-thiazol-5-yl]-N-phenylpyrimidine-2-amine] returned a chromatographic logP of 3.34. In the case of `Cc1nc(N)sc1-c1ccnc(Nc2ccc(O)cc2)n1` [Example 323, 4-{[4-(2-amino-4-methyl-1,3-thiazol-5-yl)pyrimidin-2-yl]amino}phenol], the chromatographic logP came out at 0.93. On the same count and under the same terms, the same measure for `CCc1nc(C)c(-c2ccnc(Nc3ccc(C(=O)O)cc3)n2)s1` [Example 325, 4-{[4-(2-ethyl-4-methyl-1,3-thiazol-5-yl)pyrimidin-2-yl]amino}benzoic acid]: 2.16. Turning to `COCC(C)Nc1nc(C)c(-c2ccnc(Nc3cc(OC)c(OC)c(OC)c3)n2)s1` (centres unmarked) [Example 332, 4-{2-[(2-methoxy-1-methylethyl)amino]-4-methyl-1,3-thiazol-5-yl}-N-(3,4,5-trimethoxyphenyl)pyrimidine-2-amine], the chromatographic logP was 1.85.

For `COCC(C)Nc1nc(C)c(-c2ccnc(Nc3cccc(OC)c3)n2)s1` (centres unmarked) [Example 333, 4-{2-[(2-methoxy-1-methylethyl)amino]-4-methyl-1,3-thiazol-5-yl}-N-(3-methoxyphenyl)pyrimidine-2-amine], the chromatographic logP amounted to 2.03. Still for that read-out and setting: the same measure for `COCC(C)Nc1nc(C)c(-c2ccnc(Nc3cccc([N+](=O)[O-])c3)n2)s1` (centres unmarked) [Example 334, 4-{2-[(2-methoxy-1-methylethyl)amino]-4-methyl-1,3-thiazol-5-yl}-N-(3-nitrophenyl)pyrimidine-2-amine]: 2.2; for `Cc1nc(N(C)C2CC2)sc1-c1ccnc(Nc2ccccc2)n1` [Example 341, 4-{2-[cyclopropyl(methyl)amino]-4-methyl-1,3-thiazol-5-yl}-N-phenylpyrimidine-2-amine]: 2.43; for `COc1cc(Nc2nccc(-c3sc(NCC4CCCO4)nc3C)n2)cc(OC)c1OC` (centres unmarked) [Example 354, 4-{4-methyl-2-[(tetrahydrofuran-2-ylmethyl)amino]-1,3-thiazol-5-yl}-N-(3,4,5-trimethoxyphenyl)pyrimidine-2-amine]: 1.8. Same read-out and setting: then `Cc1nc(NCC2CCCO2)sc1-c1ccnc(Nc2cccc([N+](=O)[O-])c2)n1` (centres unmarked) [Example 355, 4-{4-methyl-2-[(tetrahydrofuran-2-ylmethyl)amino]-1,3-thiazol-5-yl}-N-(3-nitrophenyl)pyrimidine-2-amine], with 2.13; and `Cc1nc(NCC2CCCO2)sc1-c1ccnc(Nc2ccccc2)n1` (centres unmarked) [Example 356, 4-{4-methyl-2-[(tetrahydrofuran-2-ylmethyl)amino]-1,3-thiazol-5-yl}-N-phenylpyrimidine-2-amine], with 1.87. `Cc1nc(N(C)c2ccccc2)sc1-c1ccnc(Nc2ccccc2)n1` [Example 357, 4-{4-methyl-2-[methyl(phenyl)amino]-1,3-thiazol-5-yl}-N-phenylpyrimidine-2-amine]: the chromatographic logP stood at 3.21. Still for that read-out and setting: the same measure for `Cc1nc(C(=O)N(C)C)sc1-c1ccnc(Nc2ccccc2)n1` [Example 373, 5-(2-anilinopyrimidin-4-yl)-N,N,4-trimethyl-1,3-thiazole-2-carboxamide]: 2.72; for `CCOC(=O)c1cccc(Nc2nccc(-c3sc(C4CC4)nc3C)n2)c1` [Example 374, ethyl-3-{[4-(2-cyclopropyl-4-methyl-1,3-thiazol-5-yl)pyrimidin-2-yl]amino}benzoate]: 3.56; for `COC(=O)Nc1ccc(Nc2nccc(-c3sc(C)nc3C)n2)cc1` [Example 380, methyl-(4-{[4-(2,4-dimethyl-1,3-thiazol-5-yl)pyrimidin-2-yl]amino}phenyl)carbamate]: 1.84. Still for that read-out and setting: then `Cc1nc(C)c(-c2ccnc(Nc3ccc4c(c3)OCCO4)n2)s1` [Example 387, N-(2,3-dihydro-1,4-benzodioxin-6-yl)-4-(2,4-dimethyl-1,3-thiazol-5-yl)pyrimidine-2-amine], with 2.34; and `CCc1nc(C)c(-c2ccnc(Nc3ccc4c(c3)OCCO4)n2)s1` [Example 388, N-(2,3-dihydro-1,4-benzodioxin-6-yl)-4-(2-ethyl-4-methyl-1,3-thiazol-5-yl)pyrimidine-2-amine], with 2.7.

`Cc1nc(C(C)C)sc1-c1ccnc(Nc2ccc3c(c2)OCCO3)n1` [Example 389, N-(2,3-dihydro-1,4-benzodioxin-6-yl)-4-(2-isopropyl-4-methyl-1,3-thiazol-5-yl)pyrimidine-2-amine] displayed a chromatographic logP of 3.16.

In the case of `COCc1nc(C)c(-c2ccnc(Nc3ccc4c(c3)OCCO4)n2)s1` [Example 390, N-(2,3-dihydro-1,4-benzodioxin-6-yl)-4-[2-(methoxymethyl)-4-methyl-1,3-thiazol-5-yl]pyrimidine-2-amine], the chromatographic logP stood at 2.49.
